Measured values from patent US20070060532A1, “Use of metformin and orlistat for the treatment or prevention of obesity” (Fournier Laboratories Ireland Limited, priority 2004, published 2007).

Tested on: C57BL/6 EOPS male mice
Test: Effect of metformin and orlistat co-administration on body weight in mice fed with high-fat diet
Assay type: in vivo
Settings: p.o. mixed with the diet, orlistat 2 mg/kg, metformin 100 mg/kg, mean±s.e.m.
Procedure: This study was designed to evaluate the effects of a combination of metformin and orlistat on body weight.
Animals: C57BL/6 EOPS male mice, weighing approximately 20 g, were used in the study. C57BL/6 EOPS mice are normal mice which, when subjected to a high-fat diet, become obese and develop hyperglycaemia. They were put by 5 into individual cages in a temperature-, humidity- and light-controlled room (21-23° C.±2° C., 12 h-12 h light-dark cycle). […] After acclimatization, they were randomized into groups of 20, based on body weight.
The experimental groups were:
Group 1: mice fed with standard diet
Group 2: mice fed with high-fat diet, treated with orlistat 2 mg/kg p.o., mixed with the diet
Group 3: mice fed with high-fat diet, treated with metformin 100 mg/kg p.o., mixed with the diet
Group 4: mice fed with high-fat diet, treated with orlistat 2 mg/kg p.o. and metformin 100 mg/kg p.o., mixed with the diet.
Body weight was recorded at the beginning of the study, and after one and three weeks of treatment, respectively.
Statistics: All data are presented as mean±s.e.m. Results were subjected to covariance analysis corrected from baseline followed by Turkey-Kramer adjustment for multiple comparisons. A p<0.1 was considered significant (vs. standard diet).

Row | SMILES | Body weight gain (g) after 1 week | Body weight gain (g) after 3 weeks
1 | CCCCCCCCCCC[C@@H](C[C@@H]1OC(=O)[C@H]1CCCCCC)OC(=O)[C@H](CC(C)C)NC=O (relative stereo) [Orlistat, [2S-[2α(R*),3β]]-N-formyl-L-leucine 1-[(3-hexyl-4-oxo-2-oxetanyl)methyl]dodecyl ester] | +3.2 ± 0.48 g | +5.5 ± 0.63 g
2 | CN(C)C(=N)NC(=N)N [Metformin, 1,1-dimethylbiguanide] | +1.3 ± 0.14 g | +3.5 ± 0.25 g
